This note sets out measurements from publication PMC9927415, “Tyrosine Kinase Inhibitors Display Potent Activity against Cryptosporidium parvum” (Microbiology Spectrum, 2022).

Common to all, as to assay: KINOMEscan competitive binding, whole panel
The target of experiment [1] is T1, panel of 203 kinases (Homo sapiens, UniProt O95819).
T1 construct: purchased DiscoverX (KINOMEscan)
The conditions noted are these: 10 µM, n=1; kinase MAP4K4; read-out: Percent inhibition MAP4K4. A digest of the protocol: (§1)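 Percentage inhibition reflects loss of kinase binding to solid-phase ATP-site probe ligands in the presence of compound. Kinases carry a T7 bacteriophage fusion.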

Experiment [2] has as its target T2, panel of 203 kinases (Homo sapiens, UniProt P04626).
T2 construct: purchased DiscoverX (KINOMEscan)
As to conditions: 10 µM, n=1; kinase ERBB2; read-out: Percent inhibition ERBB2. A digest of the protocol: as §1

Experiment [3] has as its target T3, panel of 203 kinases (Homo sapiens, UniProt P36894).
T3 construct: purchased DiscoverX (KINOMEscan)
As to conditions: 10 µM, n=1; kinase BMPR1A; read-out: Percent inhibition BMPR1A. An outline of the steps:
as §1

Experiment [4] has as its target T4, panel of 203 kinases (Homo sapiens, UniProt P78368).
T4 construct: purchased DiscoverX (KINOMEscan)
The conditions noted are these: 10 µM, n=1; kinase CSNK1G2; read-out: Percent inhibition CSNK1G2. An outline of the steps: as §1

The target of experiment [5] is T5, panel of 203 kinases (Homo sapiens, UniProt Q04771).
T5 construct: purchased DiscoverX (KINOMEscan)
T5 sequence (Q04771 21-509): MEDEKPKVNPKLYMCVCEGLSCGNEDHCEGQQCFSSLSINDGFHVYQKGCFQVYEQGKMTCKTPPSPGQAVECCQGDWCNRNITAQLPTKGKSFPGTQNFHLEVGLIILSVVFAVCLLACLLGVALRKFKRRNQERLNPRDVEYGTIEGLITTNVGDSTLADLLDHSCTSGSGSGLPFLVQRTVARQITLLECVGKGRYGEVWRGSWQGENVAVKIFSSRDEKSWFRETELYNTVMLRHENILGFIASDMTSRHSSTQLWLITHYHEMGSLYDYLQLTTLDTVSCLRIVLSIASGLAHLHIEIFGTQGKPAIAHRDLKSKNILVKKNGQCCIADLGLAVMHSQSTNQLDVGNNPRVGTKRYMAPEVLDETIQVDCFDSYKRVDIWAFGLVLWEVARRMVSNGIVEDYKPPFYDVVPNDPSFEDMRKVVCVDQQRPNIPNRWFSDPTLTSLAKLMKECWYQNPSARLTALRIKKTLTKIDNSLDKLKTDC
As to conditions: 10 µM, n=1; kinase ACVR1; read-out: Percent inhibition ACVR1. A digest of the protocol:
as §1

The target of experiment [6] is T6, panel of 203 kinases (Homo sapiens, UniProt Q13555).
T6 construct: purchased DiscoverX (KINOMEscan)
The conditions noted are these: 10 µM, n=1; kinase CAMK2G; read-out: Percent inhibition CAMK2G. An outline of the steps:
as §1

For experiment [7], the target named is T7, panel of 203 kinases (Homo sapiens, UniProt Q15375).
T7 construct: purchased DiscoverX (KINOMEscan)
The conditions noted are these: 10 µM, n=1; kinase EPHA7; read-out: Percent inhibition EPHA7. An outline of the steps:
as §1

Experiment [8] concerns the target T8, panel of 203 kinases (Homo sapiens, UniProt Q8IU85).
T8 construct: purchased DiscoverX (KINOMEscan)
The conditions noted are these: 10 µM, n=1; kinase CAMK1D; read-out: Percent inhibition CAMK1D. A digest of the protocol: as §1

The target of experiment [9] is T9, panel of 203 kinases (Homo sapiens, UniProt Q8N5S9).
T9 construct: purchased DiscoverX (KINOMEscan)
The conditions noted are these: 10 µM, n=1; kinase CAMKK1; read-out: Percent inhibition CAMKK1. A digest of the protocol:
as §1

Experiment [10] concerns the target T10, panel of 203 kinases (Homo sapiens, UniProt Q8TDX7).
T10 construct: purchased DiscoverX (KINOMEscan)
As to conditions: 10 µM, n=1; kinase NEK7; read-out: Percent inhibition NEK7. An outline of the steps:
as §1

The target of experiment [11] is T11, panel of 203 kinases (Homo sapiens, UniProt Q9P0L2).
T11 construct: purchased DiscoverX (KINOMEscan)
As to conditions: 10 µM, n=1; kinase MARK1; read-out: Percent inhibition MARK1. A digest of the protocol:
as §1

In experiment [12] the target is T12, panel of 203 kinases (Homo sapiens, UniProt Q9UQB9).
T12 construct: purchased DiscoverX (KINOMEscan)
T12 sequence (Q9UQB9 1-309): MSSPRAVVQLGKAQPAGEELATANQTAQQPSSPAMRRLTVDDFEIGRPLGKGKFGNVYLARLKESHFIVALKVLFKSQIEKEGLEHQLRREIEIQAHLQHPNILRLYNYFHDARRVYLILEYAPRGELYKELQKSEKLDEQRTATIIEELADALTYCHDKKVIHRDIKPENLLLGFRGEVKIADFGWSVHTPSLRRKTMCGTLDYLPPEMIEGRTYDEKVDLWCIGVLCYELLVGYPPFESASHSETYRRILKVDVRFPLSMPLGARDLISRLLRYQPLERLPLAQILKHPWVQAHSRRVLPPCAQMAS
The conditions noted are these: 10 µM, n=1; kinase AURKC; read-out: Percent inhibition AURKC. An outline of the steps:
as §1

Experiment [13] addresses T13, panel of 203 kinases (Homo sapiens, UniProt Q9UQM7).
T13 construct: purchased DiscoverX (KINOMEscan)
The conditions noted are these: 10 µM, n=1; kinase CAMK2A; read-out: Percent inhibition CAMK2A. A digest of the protocol: as §1

Experiment [14] has as its target T14, panel of 203 kinases (Homo sapiens, UniProt Q9Y6R4).
T14 construct: purchased DiscoverX (KINOMEscan)
As to conditions: 10 µM, n=1; kinase MAP3K4; read-out: Percent inhibition MAP3K4. A digest of the protocol: as §1

T7 sequence (Q15375 28-998): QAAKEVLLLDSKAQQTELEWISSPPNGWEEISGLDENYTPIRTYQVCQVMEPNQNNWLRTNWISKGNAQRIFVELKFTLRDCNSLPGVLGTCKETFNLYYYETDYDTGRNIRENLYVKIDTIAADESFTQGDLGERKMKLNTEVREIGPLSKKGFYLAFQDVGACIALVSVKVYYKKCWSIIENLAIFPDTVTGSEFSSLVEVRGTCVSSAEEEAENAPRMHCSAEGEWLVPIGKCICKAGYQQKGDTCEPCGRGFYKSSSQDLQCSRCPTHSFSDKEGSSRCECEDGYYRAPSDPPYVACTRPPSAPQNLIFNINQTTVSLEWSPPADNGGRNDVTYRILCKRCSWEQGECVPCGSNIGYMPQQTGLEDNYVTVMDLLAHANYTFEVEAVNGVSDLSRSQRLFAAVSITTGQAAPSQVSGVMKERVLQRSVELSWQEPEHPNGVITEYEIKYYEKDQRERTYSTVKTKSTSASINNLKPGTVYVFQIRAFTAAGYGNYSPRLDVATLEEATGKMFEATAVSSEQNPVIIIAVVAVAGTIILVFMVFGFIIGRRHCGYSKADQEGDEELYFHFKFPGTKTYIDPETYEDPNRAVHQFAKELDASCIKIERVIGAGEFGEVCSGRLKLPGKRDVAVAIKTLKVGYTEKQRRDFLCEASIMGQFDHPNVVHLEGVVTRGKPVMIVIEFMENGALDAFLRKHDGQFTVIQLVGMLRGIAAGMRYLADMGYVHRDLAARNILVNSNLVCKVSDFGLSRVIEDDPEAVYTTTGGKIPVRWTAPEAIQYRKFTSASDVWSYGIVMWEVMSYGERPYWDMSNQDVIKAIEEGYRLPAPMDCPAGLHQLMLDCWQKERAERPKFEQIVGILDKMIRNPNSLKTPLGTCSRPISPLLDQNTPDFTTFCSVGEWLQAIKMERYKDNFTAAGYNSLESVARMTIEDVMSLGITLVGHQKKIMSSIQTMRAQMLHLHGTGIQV
T6 sequence (Q13555 whole entry): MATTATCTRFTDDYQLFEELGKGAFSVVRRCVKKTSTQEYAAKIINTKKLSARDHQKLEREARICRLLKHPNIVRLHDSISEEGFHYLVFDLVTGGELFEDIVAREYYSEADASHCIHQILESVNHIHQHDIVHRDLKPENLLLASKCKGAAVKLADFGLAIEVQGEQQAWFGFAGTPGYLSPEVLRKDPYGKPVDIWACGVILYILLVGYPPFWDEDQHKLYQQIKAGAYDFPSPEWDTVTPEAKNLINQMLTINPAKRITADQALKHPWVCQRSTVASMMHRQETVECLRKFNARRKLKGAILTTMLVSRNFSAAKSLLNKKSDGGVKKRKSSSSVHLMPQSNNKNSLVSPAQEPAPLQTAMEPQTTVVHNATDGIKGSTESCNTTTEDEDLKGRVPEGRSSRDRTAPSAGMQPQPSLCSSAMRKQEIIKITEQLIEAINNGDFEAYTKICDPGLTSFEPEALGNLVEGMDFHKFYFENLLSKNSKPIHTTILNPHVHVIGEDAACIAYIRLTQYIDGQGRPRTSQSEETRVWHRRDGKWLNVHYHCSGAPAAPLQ
T13 sequence (Q9UQM7 whole entry): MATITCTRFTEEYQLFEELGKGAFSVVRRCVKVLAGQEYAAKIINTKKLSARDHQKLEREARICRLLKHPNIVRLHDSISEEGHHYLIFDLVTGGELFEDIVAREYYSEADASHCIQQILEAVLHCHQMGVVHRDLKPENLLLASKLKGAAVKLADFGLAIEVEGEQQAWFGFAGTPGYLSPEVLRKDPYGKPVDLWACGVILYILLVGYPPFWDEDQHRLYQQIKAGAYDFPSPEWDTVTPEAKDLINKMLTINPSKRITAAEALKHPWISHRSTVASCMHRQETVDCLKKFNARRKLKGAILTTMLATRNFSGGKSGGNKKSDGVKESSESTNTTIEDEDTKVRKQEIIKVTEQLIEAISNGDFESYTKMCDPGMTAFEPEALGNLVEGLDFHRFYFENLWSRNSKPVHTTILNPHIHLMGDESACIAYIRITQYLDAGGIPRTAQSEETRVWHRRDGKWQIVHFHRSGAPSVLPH
T9 sequence (Q8N5S9 whole entry): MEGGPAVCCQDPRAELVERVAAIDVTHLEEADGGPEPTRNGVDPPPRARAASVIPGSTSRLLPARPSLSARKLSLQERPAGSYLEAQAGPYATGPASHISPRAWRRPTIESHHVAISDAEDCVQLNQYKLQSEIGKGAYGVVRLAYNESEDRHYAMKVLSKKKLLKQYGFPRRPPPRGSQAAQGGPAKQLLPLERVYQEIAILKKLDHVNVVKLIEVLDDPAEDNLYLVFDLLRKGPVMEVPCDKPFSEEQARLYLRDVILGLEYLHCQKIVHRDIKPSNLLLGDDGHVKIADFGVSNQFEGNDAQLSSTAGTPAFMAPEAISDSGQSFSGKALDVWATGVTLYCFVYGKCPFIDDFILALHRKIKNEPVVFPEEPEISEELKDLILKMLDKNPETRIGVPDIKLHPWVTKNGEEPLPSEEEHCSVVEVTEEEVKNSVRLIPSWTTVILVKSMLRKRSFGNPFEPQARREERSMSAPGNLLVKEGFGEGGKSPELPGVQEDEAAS
T10 sequence (Q8TDX7 whole entry): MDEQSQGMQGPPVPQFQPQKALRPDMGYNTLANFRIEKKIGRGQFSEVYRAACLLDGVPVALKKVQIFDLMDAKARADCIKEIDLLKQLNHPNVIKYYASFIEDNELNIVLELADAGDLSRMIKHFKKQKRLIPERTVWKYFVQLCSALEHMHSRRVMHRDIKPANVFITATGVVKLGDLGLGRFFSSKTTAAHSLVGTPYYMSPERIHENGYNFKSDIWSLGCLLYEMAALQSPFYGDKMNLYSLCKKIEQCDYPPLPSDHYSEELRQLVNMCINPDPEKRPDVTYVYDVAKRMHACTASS
T1 sequence (O95819 whole entry): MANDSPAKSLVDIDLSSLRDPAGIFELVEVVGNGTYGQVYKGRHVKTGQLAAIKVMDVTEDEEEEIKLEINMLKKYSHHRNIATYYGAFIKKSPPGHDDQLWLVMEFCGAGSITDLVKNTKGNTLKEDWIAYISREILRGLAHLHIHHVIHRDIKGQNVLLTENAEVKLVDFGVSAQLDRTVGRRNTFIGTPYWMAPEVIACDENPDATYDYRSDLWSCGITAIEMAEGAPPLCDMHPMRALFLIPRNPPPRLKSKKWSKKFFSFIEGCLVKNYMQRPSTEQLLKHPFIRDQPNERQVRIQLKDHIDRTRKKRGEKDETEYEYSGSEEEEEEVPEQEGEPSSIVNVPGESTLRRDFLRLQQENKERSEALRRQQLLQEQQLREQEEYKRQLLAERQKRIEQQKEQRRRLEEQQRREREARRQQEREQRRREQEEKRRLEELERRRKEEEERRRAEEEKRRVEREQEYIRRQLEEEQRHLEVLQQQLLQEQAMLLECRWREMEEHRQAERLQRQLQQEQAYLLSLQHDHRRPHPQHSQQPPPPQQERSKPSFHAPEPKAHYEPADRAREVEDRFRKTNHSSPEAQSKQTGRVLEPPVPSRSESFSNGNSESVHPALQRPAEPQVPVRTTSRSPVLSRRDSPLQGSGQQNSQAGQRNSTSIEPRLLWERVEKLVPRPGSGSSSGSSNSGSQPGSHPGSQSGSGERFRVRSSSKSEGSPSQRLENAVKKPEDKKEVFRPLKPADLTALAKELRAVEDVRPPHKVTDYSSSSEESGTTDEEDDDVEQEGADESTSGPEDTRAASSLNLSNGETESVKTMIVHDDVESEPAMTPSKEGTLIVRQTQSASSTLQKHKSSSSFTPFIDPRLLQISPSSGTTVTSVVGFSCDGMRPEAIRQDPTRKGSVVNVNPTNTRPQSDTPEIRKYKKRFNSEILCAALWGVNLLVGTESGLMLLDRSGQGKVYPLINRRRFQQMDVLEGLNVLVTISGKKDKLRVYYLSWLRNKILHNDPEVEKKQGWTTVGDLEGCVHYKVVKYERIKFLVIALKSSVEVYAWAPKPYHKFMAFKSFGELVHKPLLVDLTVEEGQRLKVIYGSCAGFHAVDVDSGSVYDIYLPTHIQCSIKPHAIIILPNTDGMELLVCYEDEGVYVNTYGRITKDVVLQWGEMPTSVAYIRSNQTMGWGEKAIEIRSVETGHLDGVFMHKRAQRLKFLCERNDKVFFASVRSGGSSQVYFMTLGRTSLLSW
T3 sequence (P36894 24-532): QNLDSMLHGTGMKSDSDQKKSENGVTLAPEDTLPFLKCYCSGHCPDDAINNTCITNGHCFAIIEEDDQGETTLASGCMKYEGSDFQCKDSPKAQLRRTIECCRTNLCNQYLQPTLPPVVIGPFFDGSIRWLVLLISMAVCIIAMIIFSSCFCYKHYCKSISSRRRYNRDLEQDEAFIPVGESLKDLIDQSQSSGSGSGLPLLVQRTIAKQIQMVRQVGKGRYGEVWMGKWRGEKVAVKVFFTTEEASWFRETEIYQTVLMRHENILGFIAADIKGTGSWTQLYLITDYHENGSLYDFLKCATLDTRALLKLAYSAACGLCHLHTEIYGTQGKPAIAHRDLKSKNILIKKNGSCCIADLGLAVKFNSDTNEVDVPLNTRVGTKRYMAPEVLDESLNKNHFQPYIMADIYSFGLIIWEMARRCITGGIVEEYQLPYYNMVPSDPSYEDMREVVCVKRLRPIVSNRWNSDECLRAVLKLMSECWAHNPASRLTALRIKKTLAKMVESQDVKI
T4 sequence (P78368 whole entry): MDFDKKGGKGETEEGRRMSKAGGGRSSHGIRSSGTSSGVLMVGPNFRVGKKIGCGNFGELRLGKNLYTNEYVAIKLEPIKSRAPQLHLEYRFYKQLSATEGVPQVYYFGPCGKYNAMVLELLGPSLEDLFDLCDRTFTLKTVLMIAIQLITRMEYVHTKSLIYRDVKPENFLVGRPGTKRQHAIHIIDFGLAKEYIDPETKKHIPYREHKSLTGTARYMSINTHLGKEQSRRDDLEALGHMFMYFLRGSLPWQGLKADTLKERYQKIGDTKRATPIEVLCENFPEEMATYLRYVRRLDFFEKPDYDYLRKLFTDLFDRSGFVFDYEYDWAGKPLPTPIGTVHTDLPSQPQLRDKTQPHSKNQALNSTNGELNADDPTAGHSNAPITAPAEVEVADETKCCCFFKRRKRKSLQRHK

`CN1CCN(c2ccc(Nc3nccc(-c4cnn5ncccc45)n3)cc2C#N)CC1` [Compound 1]: the inhibition at 10 µM came to 80% on panel of 203 kinases [1]; 0% on panel of 203 kinases [2]; 0% on panel of 203 kinases [3]; 88.3% on panel of 203 kinases [4]; 98.8% at panel of 203 kinases [5]; 97.7% on panel of 203 kinases [6]. For the same compound, the inhibition at 10 µM worked out at 67.3% at panel of 203 kinases [7]; 98.3% on panel of 203 kinases [8]; 99.2% at panel of 203 kinases [9]; 100% at panel of 203 kinases [10]; 85.3% on panel of 203 kinases [11]; 96.5% on panel of 203 kinases [12]. Also, the figures for the inhibition at 10 µM on panel of 203 kinases [13] and on panel of 203 kinases [14] were 98.7% and 91%, respectively.

On to `COc1ccc(Nc2nccc(-c3cnn4ncccc34)n2)cc1` [Compound 2], for which the inhibition at 10 µM on panel of 203 kinases [1] came to 0%; at panel of 203 kinases [2], 0%; on panel of 203 kinases [3] it was 0%; at panel of 203 kinases [4], 93.6%; on panel of 203 kinases [5] it was 92.1%; on panel of 203 kinases [6] it was 75.2%. Also, the inhibition at 10 µM was 74.6% on panel of 203 kinases [7]; 0% on panel of 203 kinases [8]; 97.4% on panel of 203 kinases [9]; 100% on panel of 203 kinases [10]; 0% on panel of 203 kinases [11]; 91.1% on panel of 203 kinases [12]. Also, the inhibition at 10 µM at panel of 203 kinases [13] came to 82.5%; on panel of 203 kinases [14], 0%.

As to `Cc1ccc(O)cc1Nc1ccnc(Nc2cccc(C(N)=O)c2)n1` [Compound 3], the inhibition at 10 µM on panel of 203 kinases [1] worked out at 98.2%; on panel of 203 kinases [2] it was 0%; on panel of 203 kinases [3], 99.2%; at panel of 203 kinases [4], 93.3%; on panel of 203 kinases [5] it was 99.7%; on panel of 203 kinases [6] it was 0%. Moreover, the inhibition at 10 µM at panel of 203 kinases [7] was 84%; on panel of 203 kinases [8], 0%; on panel of 203 kinases [9], 0%; at panel of 203 kinases [10], 0%; on panel of 203 kinases [11], 0%; at panel of 203 kinases [12], 0%. Further, the inhibition at 10 µM on panel of 203 kinases [13] and at panel of 203 kinases [14] was 0% in each case.

On to `Cc1ccc(O)cc1N(C)c1ccnc(Nc2cccc(S(N)(=O)=O)c2)n1` [Compound 4], for which the inhibition at 10 µM on panel of 203 kinases [1] is 98%; at panel of 203 kinases [2], 0%; on panel of 203 kinases [3], 97%; at panel of 203 kinases [4], 75.8%; on panel of 203 kinases [5] it was 99.9%; on panel of 203 kinases [6], 0%. Moreover, the inhibition at 10 µM at panel of 203 kinases [7] stood at 100%; on panel of 203 kinases [8], 70%; on panel of 203 kinases [9], 0%; at panel of 203 kinases [10], 0%; on panel of 203 kinases [11] it was 0%; at panel of 203 kinases [12] it was 0%. Also, the inhibition at 10 µM at panel of 203 kinases [13] and on panel of 203 kinases [14] was 0% each time.

As for `Fc1cccc(COc2ccc(Nc3ncnc4c3CN(CCN3CCOCC3)CC4)cc2Cl)c1` [Compound 6], the inhibition at 10 µM on panel of 203 kinases [1] was 0%; on panel of 203 kinases [2] it was 86.5%; at panel of 203 kinases [3] it was 0%; on panel of 203 kinases [4] it was 0%; at panel of 203 kinases [5], 0%; at panel of 203 kinases [6], 0%. The inhibition at 10 µM on panel of 203 kinases [7], at panel of 203 kinases [8], at panel of 203 kinases [9], on panel of 203 kinases [10], at panel of 203 kinases [11] and at panel of 203 kinases [12] was 0% throughout. The inhibition at 10 µM at panel of 203 kinases [13] and on panel of 203 kinases [14] was 0% in each case.

Take `COc1cc(Nc2nccc(-c3sc(N)nc3-c3cccc(NC(=O)c4c(F)cccc4F)c3)n2)cc(OC)c1OC` [Compound 7]: the inhibition at 10 µM stood at 99.3% on panel of 203 kinases [1]; 100% on panel of 203 kinases [2]; 0% at panel of 203 kinases [3]; 0% at panel of 203 kinases [4]; 0% at panel of 203 kinases [5]; 0% at panel of 203 kinases [6]. Moreover, the inhibition at 10 µM on panel of 203 kinases [7] was 0%; at panel of 203 kinases [8], 91.8%; at panel of 203 kinases [9], 0%; on panel of 203 kinases [10] it was 91.3%; on panel of 203 kinases [11], 79%; at panel of 203 kinases [12], 85.7%. Moreover, the results for the inhibition at 10 µM at panel of 203 kinases [13] and on panel of 203 kinases [14] were 0% and 99.6%, respectively.

On to `C[C@@H](Oc1cc(-c2cnc3ccccn23)sc1C(N)=O)c1ccccc1Cl` [Compound 8], for which the inhibition at 10 µM at panel of 203 kinases [1], on panel of 203 kinases [2], on panel of 203 kinases [3], at panel of 203 kinases [4], on panel of 203 kinases [5] and at panel of 203 kinases [6] was 0% in each case. The inhibition at 10 µM at panel of 203 kinases [7] stood at 0%; on panel of 203 kinases [8], 0%; on panel of 203 kinases [9], 0%; at panel of 203 kinases [10], 0%; on panel of 203 kinases [11], 0%; on panel of 203 kinases [12], 96%. For the same compound, the values for the inhibition at 10 µM at panel of 203 kinases [13] and at panel of 203 kinases [14] were 66.5% and 0%, respectively.

For `c1ccc(COc2cccc(-c3ccnc4[nH]ccc34)c2)cc1` [Compound 9], the inhibition at 10 µM at panel of 203 kinases [1], at panel of 203 kinases [2], on panel of 203 kinases [3], on panel of 203 kinases [4], on panel of 203 kinases [5] and at panel of 203 kinases [6] was 0% in each case. The inhibition at 10 µM on panel of 203 kinases [7], at panel of 203 kinases [8], on panel of 203 kinases [9], on panel of 203 kinases [10], at panel of 203 kinases [11] and on panel of 203 kinases [12] was 0% throughout. Besides, the inhibition at 10 µM on panel of 203 kinases [13] and on panel of 203 kinases [14] was 0% in each case.

Take `Clc1ccc(Nc2ncc(-c3ccccc3)s2)cc1` [Compound 10]: the inhibition at 10 µM at panel of 203 kinases [1], at panel of 203 kinases [2], at panel of 203 kinases [3], on panel of 203 kinases [4], on panel of 203 kinases [5] and on panel of 203 kinases [6] was 0% each time. Besides, the inhibition at 10 µM at panel of 203 kinases [7], on panel of 203 kinases [8], at panel of 203 kinases [9], at panel of 203 kinases [10], at panel of 203 kinases [11] and on panel of 203 kinases [12] was 0% each time. The inhibition at 10 µM at panel of 203 kinases [13] and on panel of 203 kinases [14] was 0% throughout.

With `Nc1ncc2c(-c3ccncc3)c[nH]c2n1` [Compound 11], the inhibition at 10 µM at panel of 203 kinases [1] came to 84.2%; on panel of 203 kinases [2] it was 0%; on panel of 203 kinases [3] it was 0%; at panel of 203 kinases [4], 89.7%; at panel of 203 kinases [5], 66.2%; at panel of 203 kinases [6] it was 0%. Besides, the inhibition at 10 µM at panel of 203 kinases [7], on panel of 203 kinases [8], at panel of 203 kinases [9], at panel of 203 kinases [10], at panel of 203 kinases [11] and on panel of 203 kinases [12] was 0% throughout. The values for the inhibition at 10 µM on panel of 203 kinases [13] and at panel of 203 kinases [14] were 77.6% and 0%, respectively.

As usually defined, the inhibition is the share of the control response that was lost under treatment.
